Measured values published in the NIST ThermoML archive (doi:10.1021/je400122k).
± gives the expanded uncertainty stated by the source.

Settings: Liquid; for speed of sound: Pulse-echo method; for mass density: Vibrating tube method

CCCCCCCCCCCCCCCC(=O)OC [methyl hexadecanoate]
Settings	mass density [kg/m3]	speed of sound [m/s]
313.15 K, 100 kPa	–	1317.2 ± 5.4
313.15 K, 101.3 kPa	849.9 ± 1	–
313.15 K, 10000 kPa	856.3 ± 1	1365.4 ± 5.6
313.15 K, 20000 kPa	861.8 ± 1.1	1411.5 ± 5.8
313.15 K, 30000 kPa	867.9 ± 1.1	1454.4 ± 6
313.15 K, 40000 kPa	872.1 ± 1.1	1494.8 ± 6.1
313.15 K, 50000 kPa	878.4 ± 1.1	–
323.15 K, 100 kPa	–	1283.4 ± 5.3
323.15 K, 101.3 kPa	842.5 ± 1	–
323.15 K, 10000 kPa	849 ± 1	1333.7 ± 5.5
323.15 K, 20000 kPa	855.5 ± 1.1	1381.1 ± 5.7
323.15 K, 30000 kPa	861.4 ± 1.1	1425.2 ± 5.9
323.15 K, 40000 kPa	866.8 ± 1.1	1467.4 ± 6
323.15 K, 50000 kPa	871.8 ± 1.1	1506.9 ± 6.2
333.15 K, 101.3 kPa	835.2 ± 1	–
333.15 K, 10000 kPa	842 ± 1	–
333.15 K, 20000 kPa	848.7 ± 1.1	–
333.15 K, 30000 kPa	854.9 ± 1.1	–
333.15 K, 40000 kPa	860.4 ± 1.1	–
333.15 K, 50000 kPa	866.7 ± 1.1	–
343.15 K, 100 kPa	–	1215.3 ± 5
343.15 K, 101.3 kPa	827.8 ± 1	–
343.15 K, 10000 kPa	835.1 ± 1	1270.1 ± 5.3
343.15 K, 20000 kPa	842 ± 1.1	1319.7 ± 5.4
343.15 K, 30000 kPa	848.5 ± 1.1	1366.8 ± 5.6
343.15 K, 40000 kPa	854.4 ± 1.1	1410.5 ± 5.8
343.15 K, 50000 kPa	859.6 ± 1.1	1450.6 ± 5.9
353.15 K, 101.3 kPa	820.4 ± 1	–
353.15 K, 10000 kPa	827.7 ± 1	–
353.15 K, 20000 kPa	835.1 ± 1.1	–
353.15 K, 30000 kPa	841.7 ± 1.1	–
353.15 K, 40000 kPa	847.9 ± 1.1	–
353.15 K, 50000 kPa	853.8 ± 1.1	–
363.15 K, 100 kPa	–	1150.1 ± 4.8
363.15 K, 101.3 kPa	812.8 ± 1	–
363.15 K, 10000 kPa	820.3 ± 1	1208.9 ± 5
363.15 K, 20000 kPa	828 ± 1.1	1262.5 ± 5.2
363.15 K, 30000 kPa	835 ± 1.1	1311.1 ± 5.4
363.15 K, 40000 kPa	843.8 ± 1.1	1355.7 ± 5.6
363.15 K, 50000 kPa	848.6 ± 1.1	1400.9 ± 5.7
373.15 K, 101.3 kPa	804.6 ± 1	–
373.15 K, 10000 kPa	813.8 ± 1	–
373.15 K, 20000 kPa	821.7 ± 1.1	–
373.15 K, 30000 kPa	829 ± 1.1	–
373.15 K, 40000 kPa	835.7 ± 1.1	–
373.15 K, 50000 kPa	841.9 ± 1.1	–
383.15 K, 100 kPa	–	1087.2 ± 4.5
383.15 K, 101.3 kPa	797.4 ± 1	–
383.15 K, 10000 kPa	806.8 ± 1.1	1150.3 ± 4.8
383.15 K, 20000 kPa	815.1 ± 1.1	1207.5 ± 5
383.15 K, 30000 kPa	822.7 ± 1.1	1259.3 ± 5.2
383.15 K, 40000 kPa	829.6 ± 1.1	1310.8 ± 5.4
383.15 K, 50000 kPa	836.5 ± 1.1	1358.3 ± 5.6
393.15 K, 100 kPa	–	1056.9 ± 4.4
393.15 K, 10000 kPa	–	1121.2 ± 4.7
393.15 K, 20000 kPa	–	1180.4 ± 4.9
393.15 K, 30000 kPa	–	1234.2 ± 5.1
393.15 K, 40000 kPa	–	1284.7 ± 5.3
393.15 K, 50000 kPa	–	1334 ± 5.5
